Consider 30 molecules from ChEMBL document CHEMBL5365440, “Design, synthesis, and structure-activity relationship of a bicyclic HBV capsid assembly modulator chemotype leading to the identification of clinical candidate AB-506” (Bioorg Med Chem Lett, 2023).

The nature of data set [1]: Microsomal stability in mouse liver microsomes assessed as intrinsic clearance. It counts as ADME, Microsome. Conditions: read-out: CLH. (Microsomes from liver hold many membrane-bound enzymes, among them those of drug oxidation.)
The nature of data set [2]: Aqueous solubility of the compound in PBS buffer at pH 7.4. The class given is physicochemical.
In data set [3] the test system is Hepatitis B virus. Kind of data set: Antiviral activity against Hepatitis B virus infected in human HepDE19 cells assessed as reduction in viral replication incubated for 3 to 7 days by PCR analysis. The class given is functional, organism-based.
Data set [4] can be described thus: Microsomal stability in human liver microsomes assessed as intrinsic clearance. The class given is ADME, Microsome. Conditions: read-out: CLH.
A short description of data set [5]: Cytotoxicity against human HepDE19 cells incubated for 48 hrs by cell titer-glo luminescent based cell viability assay. It counts as toxicity.
The subject of data set [6] is Hepatitis B virus. In words: Antiviral activity against Hepatitis B virus infected in mouse AML12 cells assessed as reduction in viral replication incubated for 2 days by SYBR green based PCR analysis. It counts as functional, organism-based. Particulars: AML12, 48 h.
The test system of data set [7] is Hepatitis B virus. Kind of data set: Antiviral activity against Hepatitis B virus Genotype D infected in NOD.CB17-PrkdcSCID/J mouse model assessed as reduction in serum HBV DNA level at po dosed for 7 consecutive days. It counts as functional, organism-based.
For data set [8], the system named is Hepatitis B virus. Kind of data set: Antiviral activity against Hepatitis B virus Genotype D infected in NOD.CB17-PrkdcSCID/J mouse model assessed as log reduction in serum HBV DNA level at 100 mg/kg,po dosed for 7 consecutive days by qPCR analysis. The class given is functional. In general terms: Quantitative PCR measures a nucleic acid by following its amplification.

Data set [9] deals with Hepatitis B virus. Kind of data set: Antiviral activity against Hepatitis B virus Genotype D infected in NOD.CB17-PrkdcSCID/J mouse model assessed as log reduction in serum HBV DNA level at 30 mg/kg,po dosed for 7 consecutive days by qPCR analysis. The class given is functional.
Data set [10] can be described thus: Half life in CD-1 mouse at 2 mg/kg,iv. Particulars: in vivo. It counts as ADME, organism-based.
A short description of data set [11]: Clearance in CD-1 mouse at 2 mg/kg,iv. It counts as ADME, organism-based. Particulars: in vivo.
The subject of data set [12] is Hepatitis B virus. In words: Antiviral activity against Hepatitis B virus Genotype D infected in NOD.CB17-PrkdcSCID/J mouse model assessed as log reduction in serum HBV DNA level at 10 mg/kg,po dosed for 7 consecutive days by qPCR analysis. The class given is functional.
Data set [13] is described as follows: Cmax in CD-1 mouse at 10 mg/kg,po. The class given is ADME, organism-based. More on the design: dose 10 mg/kg, route po. Conditions: in vivo.
Data set [14] in a line: AUC (0-infinity) in CD-1 mouse at 10 mg/kg,po. The class given is ADME, organism-based. Conditions: in vivo. Further details: dose 10 mg/kg, route po.

By solubility is commonly meant the dissolved amount per volume that the medium holds. A low value points to little dissolved substance. What is called pEC50 is the negative decadic logarithm of the EC50, by convention in mol/L. The term CC50 denotes the concentration giving 50% cytotoxicity. Lower therefore signals greater toxicity to the cells. The term half-life denotes the time needed for the level to fall by half in the phase considered. A low value points to fast loss. Usually clearance stands for the volume of plasma or blood freed of the substance per unit of time. Read a high clearance as a high capacity for elimination. The term Cmax denotes the highest concentration seen after dosing. As a reminder, the AUC(0-inf) is the area under the concentration-time curve extrapolated to infinity. Low readings indicate less exposure, high ones more exposure.

The structures appear in SMILES notation. pEC50: −log10 of the molar value. ≈ marks a conversion by molar mass, not a printed value. Where only a bound is given, the exact number is not on record here.

Turning to `O=C(N[C@H]1CCc2c(C(=O)Nc3ccc(F)c(Cl)c3)ccc(F)c21)OCc1cnccn1`, the microsomal CLint came out at 18 µL/min/mg in data set [1] and 6.9 µL/min/mg in [4]. Further, the solubility in [2] is under 1.6 µM. Moreover, in [3], the pEC50 was 6.92.
As to `COCCCOC(=O)N[C@H]1CCc2c(C(=O)Nc3ccc(F)c(Cl)c3)ccc(F)c21`, the results for the microsomal CLint in data set [1] and in [4] were 55 µL/min/mg and 10 µL/min/mg, respectively. Also, the solubility in data set [2] was 3 µM (≈ 1.32 µg/mL). Moreover, the pEC50 in [3] is 6.24.
In turn, `COC(=O)N[C@H]1CCOc2c1ccc(F)c2C(=O)Nc1ccc(F)c(Cl)c1` came in with a CC50 at 48 h in data set [5] of over 25000 nM. For the same molecule, the pEC50 in data set [3] is 5.65.
With `COC(=O)N[C@H]1CCOc2c(C(=O)Nc3ccc(F)c(F)c3)c(F)cc(F)c21`, in [5], the cytotoxic concentration (CC50) at 48 h was over 25000 nM. Moreover, the pEC50 in data set [3] is 6.10.
Regarding `COC(=O)N[C@H]1CCCc2c(C(=O)Nc3ccc(F)c(F)c3)cccc21`, the microsomal CLint in data set [1] worked out at 21 µL/min/mg; in [4], 0.3 µL/min/mg. Further, in [3], the pEC50 was 5.07.
`O=C(N[C@H]1CCc2c(C(=O)Nc3ccc(F)c(Cl)c3)ccc(F)c21)OCc1ccncn1`: the microsomal CLint was 45 µL/min/mg in [1] and 1 µL/min/mg in [4]. The solubility in data set [2] stood at 7.5 µM (≈ 3.44 µg/mL). In addition, the pEC50 in data set [3] was 6.41.
In [5], `COC(=O)N[C@H]1CCOc2c(C(=O)Nc3ccc(F)c(F)c3)cccc21` came in with a cytotoxic concentration (CC50) at 48 h of over 25000 nM. Moreover, the negative-log EC50 (pEC50) in data set [6] was 6.15; in data set [3], 5.65.
On to `Cn1ccc(COC(=O)N[C@H]2CCc3c(C(=O)Nc4ccc(F)c(Cl)c4)ccc(F)c32)n1`, for which the Activity result is “Dose-Dependent Effect” in data set [7], 2.5 log10CFU in [8], 1.4 log10CFU in data set [9] and 0.5 log10CFU in data set [12]. For the same molecule, the results for the microsomal CLint in data set [1] and in data set [4] were 23 µL/min/mg and 7.9 µL/min/mg, respectively. Besides, in [10], the half-life was 3.5 h. The amount in solution in data set [2] (solubility) came to 4.8 µM (≈ 2.21 µg/mL). The negative-log EC50 (pEC50) in data set [3] was 7.33. The molecule also showed a clearance in data set [11] of 19 mL/min/kg. The highest concentration (Cmax) in [13] stood at 913 ng/mL. Besides, the area under the curve AUC(0-inf) in data set [14] was 5160 ng·h/mL.
For the molecule `COC(=O)N[C@H]1CCOc2c1ccc(F)c2C(=O)Nc1ccc(F)c(F)c1`, the 50% cytotoxic concentration (CC50) at 48 h in [5] was over 25000 nM. Besides, the pEC50 in data set [3] is 5.43.
In the case of `O=C(Nc1ccc(F)c(Cl)c1)c1cccc2c1OCCO2`, the negative-log EC50 (pEC50) in data set [6] was 6.70.
As to `COC(=O)N[C@H]1COc2c(C(=O)Nc3ccc(F)c(F)c3)cccc21`, the microsomal CLint in data set [1] was found to be 41 µL/min/mg; in [4], 5 µL/min/mg. Moreover, in [3], the pEC50 is 5.88.
Taken in the same sequence, the figures for `COC(=O)N[C@H]1CCc2c(C(=O)Nc3ccc(F)c(F)c3)cccc21` were 9.2 µL/min/mg, 0.6 µL/min/mg and 6.23.
`Cn1ccnc1COC(=O)N[C@H]1CCc2c(C(=O)Nc3ccc(F)c(Cl)c3)ccc(F)c21`: the microsomal CLint in data set [1] is 96 µL/min/mg; in data set [4], 104 µL/min/mg. Moreover, the solubility in data set [2] is under 1.6 µM. The pEC50 in [3] was 6.55.
For `O=C(N[C@H]1CCc2c(C(=O)Nc3ccc(F)c(Cl)c3)ccc(F)c21)OCc1ncccn1`, the microsomal CLint in [1] is 17 µL/min/mg; in data set [4], 3.5 µL/min/mg. Moreover, the concentration in solution in data set [2] (solubility) came to 4.5 µM (≈ 2.06 µg/mL). Also, the pEC50 in [3] was 6.92.
Turning to `O=C(N[C@H]1CCc2c(C(=O)Nc3ccc(F)c(Cl)c3)ccc(F)c21)OCc1ncco1`, the microsomal CLint in [1] was determined as 23 µL/min/mg; in [4] it was 7.5 µL/min/mg. The same molecule registered a solubility in [2] of under 1.6 µM. Further, in [3], the negative logarithm of the EC50 (pEC50) was 7.15.
Consider `O=C(N[C@H]1CCc2c(C(=O)Nc3ccc(F)c(Cl)c3)ccc(F)c21)OCCO`, for which the microsomal CLint worked out at 3 µL/min/mg in [1] and 1 µL/min/mg in data set [4]. The molecule further came in with a solubility in data set [2] of 6.4 µM (≈ 2.63 µg/mL). Besides, the negative logarithm of the EC50 (pEC50) in data set [3] was 6.70.
For `COC(=O)N[C@H]1CCc2c(C(=O)Nc3ccc(F)c(Cl)c3)ccc(F)c21`, in that order: 9.2 µL/min/mg, 3.5 µL/min/mg, under 1.6 µM and 6.77.
In [5], `COC(=O)N[C@H]1CCOc2c(C(=O)Nc3ccc(F)c(Cl)c3)ccc(F)c21` registered a CC50 at 48 h of over 25000 nM. Also, in data set [3], the negative-log EC50 (pEC50) is 6.70.
As to `O=C(N[C@H]1CCc2c(C(=O)Nc3ccc(F)c(Cl)c3)ccc(F)c21)OCCn1ccnc1`, the microsomal CLint in data set [1] and in [4] was 20 µL/min/mg each time. This molecule also displayed a solubility in data set [2] of 16.9 µM (≈ 7.79 µg/mL). The pEC50 in data set [3] was 6.52.
Turning to `O=C(N[C@H]1CCc2c(C(=O)Nc3ccc(F)c(Cl)c3)ccc(F)c21)OCc1cc[nH]n1`, the microsomal CLint is 17 µL/min/mg in [1] and 8 µL/min/mg in data set [4]. The same molecule gave a solubility in data set [2] of under 1.6 µM. Besides, the pEC50 in [3] is 7.13.
`COC(=O)N[C@H]1CCOc2c(C(=O)Nc3ccc(F)c(Cl)c3)cccc21` had a cytotoxic concentration (CC50) at 48 h in data set [5] of over 25000 nM. Further, the pEC50 in [6] was 6.55; in [3] it was 6.07.
Regarding `COC(=O)N[C@H]1CCCOc2c(C(=O)Nc3ccc(F)c(F)c3)cccc21`, the negative logarithm of the EC50 (pEC50) in data set [3] is under 4.60.
With `O=C(N[C@H]1CCc2c(C(=O)Nc3ccc(F)c(Cl)c3)ccc(F)c21)OCc1nc[nH]n1`, the microsomal CLint in data set [1] came to 9 µL/min/mg; in data set [4], 0.2 µL/min/mg. In addition, the solubility in data set [2] stood at 6.1 µM (≈ 2.73 µg/mL). The pEC50 in [3] was 7.10.
Turning to `COCCOC(=O)N[C@H]1CCc2c(C(=O)Nc3ccc(F)c(Cl)c3)ccc(F)c21`, the microsomal CLint in data set [1] was 8.1 µL/min/mg; in data set [4], 8.2 µL/min/mg. Further, the solubility in [2] stood at 2.8 µM (≈ 1.19 µg/mL). For the same molecule, the pEC50 in data set [3] is 6.72.
`COC(=O)N[C@H]1CCOc2c(C(=O)Nc3ccc(F)c(F)c3)ccc(F)c21` showed a CC50 at 48 h in data set [5] of over 25000 nM. Further, the negative-log EC50 (pEC50) in [3] is 6.24.
As to `CC(=O)NCCOC(=O)N[C@H]1CCc2c(C(=O)Nc3ccc(F)c(Cl)c3)ccc(F)c21`, the microsomal CLint was 17 µL/min/mg in data set [1] and 133 µL/min/mg in [4]. Moreover, the concentration in solution in data set [2] (solubility) came to 43.4 µM (≈ 19.6 µg/mL). Also, the negative-log EC50 (pEC50) in data set [3] was 6.72.
For `O=C(N[C@H]1CCc2c(C(=O)Nc3ccc(F)c(Cl)c3)ccc(F)c21)OCc1ccon1`, the microsomal CLint in data set [1] turned out to be 33 µL/min/mg; in data set [4], 4.8 µL/min/mg. In data set [2], this molecule showed a solubility of under 1.6 µM. Further, the negative logarithm of the EC50 (pEC50) in [3] was 6.92.
As to `COC(=O)N[C@H]1CCOc2c(C(=O)Nc3cc(F)c(F)c(F)c3)cccc21`, the CC50 at 48 h in [5] is over 25000 nM. Moreover, in data set [3], the negative-log EC50 (pEC50) is 5.93.
In the case of `O=C(N[C@H]1CCc2c(C(=O)Nc3ccc(F)c(Cl)c3)ccc(F)c21)OCc1ccccn1`, the Activity entry in [7] is “Dose-Dependent Effect”; in [8], 1.6 log10CFU; in data set [9], 0.8 log10CFU. In addition, the microsomal CLint in [1] is 36 µL/min/mg; in data set [4], 11 µL/min/mg. This molecule showed a half-life in data set [10] of 1.2 h. In data set [2], this molecule showed a solubility of under 1.6 µM. In addition, in data set [3], the pEC50 is 7.02. The clearance in data set [11] is 28 mL/min/kg. In addition, in data set [13], the highest concentration (Cmax) came to 695 ng/mL. The molecule further gave an AUC(0-inf) in data set [14] of 7230 ng·h/mL.
`Cn1nccc1COC(=O)N[C@H]1CCc2c(C(=O)Nc3ccc(F)c(Cl)c3)ccc(F)c21`: the microsomal CLint in [1] stood at 25 µL/min/mg; in data set [4], 38 µL/min/mg. This molecule also gave a solubility in data set [2] of 9.1 µM (≈ 4.19 µg/mL). Besides, in [3], the pEC50 is 7.00.
